In PMC1790702, “Non-Metabolic Membrane Tubulation and Permeability Induced by Bioactive Peptides” (PLoS ONE, 2007):

Legend:
[1] = Membrane deformations on giant unilamellar vesicles, phase contrast video-microscopy; settings: GUVs PC/PG 9/1, 25°C
Description: Giant unilamellar vesicles (GUVs) were obtained by electroformation as described in [49]. Briefly, 1.5 µl of PC/PG (9/1, w/w) solution (0.4 mg/ml in chloroform/methanol 9/1) were spread on each platinum electrode. The lipid film was dried for half an hour under a gentle stream of nitrogen. The chamber was placed in an inverted microscope (Zeiss Axiovert 200M) and a thermocouple positioned to monitor the temperature (25°C). The electrodes were then completely hydrated with 2 ml of a low ionic strength buffer (HEPES 0.5 mM, pH 7.4 and conductivity 20 µS/cm). Immediately after buffer addition, a low frequency alternating field (5 Hz and 1 V) was applied on the electrodes for at least 2 hours. GUVs of diameter between 10 to 100 µm were observed. […] The observation temperature was 25°C.

[2] = Small angle X-ray scattering of multilamellar vesicles, electron density profiles; type: physicochemical; settings: PC/PG (9/1) MLVs, peptide/lipid 1/20 (w/w)
Description: Briefly, samples for SAXS examination were prepared by dissolving dry lipids in chloroform/methanol (2/1, vol/vol) and mixing to obtain the indicated proportions. The solvent was subsequently evaporated under a stream of oxygen-free dry nitrogen at 45°C and traces of solvent removed by a storage under high vacuum for 2 days. In order to obtain the Multiple Lamellar Vesicles (MLVs) the dry lipids were hydrated with an equal weight of buffer (5 mM HEPES pH 7.4). The aqueous lipid dispersion was thoroughly stirred to obtain a homogeneous dispersion, sealed under argon and kept until examination at 4°C. For X-ray measurements, lipid samples (∼20 µl) were deposited between two thin mica windows and mounted on a programmable thermal stage (Linkam, UK). The temperature was monitored by a thermocouple (Quad Service, Poissy, France) inserted directly into the lipid dispersion. Samples were exposed for 30 seconds to the beam (1.5 Å wavelength). The SAXS quadrant detector response was corrected for the uneven channel response using a static radioactive […] and S was calibrated for d-spacing using hydrated rat tail collagen. Information on the setup, calibration, and facilities are available on the station web site (http://www.srs.dl.ac.uk/ncd/station82/description.html).
The electron density profiles of lipid bilayers were obtained by Fourier synthesis of x-ray diffraction patterns. Integrated densities were derived from five diffraction orders (estimated spatial resolution <0.12 nm) by measuring the area under each diffraction peak separated and integrated using the software Peakfit (Seasolve).

[3] = LUV aggregation by turbidimetry
Description: (§1) Large unilamellar vesicles (LUV) were prepared by extrusion through a polycarbonate filter (pore diameter 100 nm) in an extrusion device from Avestin as described in [38]. To obtain calcein loaded LUVs, at 2 mg/ml lipid concentration (PC/PG/ [^14C] PC 9/1/0.01 mol ratio), a solution in chloroform was dried under a gentle stream of nitrogen and maintained under vacuum for at least 2 h to ascertain removal of residual solvent. Then, the dried lipid film was hydrated with 1 ml of 70 mM calcein solution in HEPES 10 mM pH 7.4, vigorously vortexed and extruded. Free calcein was separated by passing the suspension trough two gel filtration columns in tandem (Econo-Pac 10 DG, Bio-Rad). The final lipid concentration was quantified measuring the [^14C] PC radiactivity with a liquid scintillation counter LS 6000 SC (Beckman Coulter France).
LUVs aggregation was monitored by turbidimetry (absorbance at 340 nm) in a Cary spectrophotometer (Varian) as described. Peptides were added to a 500 µl quartz cuvette containing 10 µg of LUVs in a HEPES 10 mM pH 7.4 buffer and the absorbance was followed during 20 min after peptide exposure. At this time, membrane aggregation attained the plateau.

[4] = Tryptophan fluorescence, membrane binding; settings: excitation 280 nm, PC/PG (9/1) LUVs, 25°C
Description: Tryptophan fluorescence was measured following the recommendations described in [51]. Excitation wavelength was 280 nm, and emission spectrum was collected (290–600 nm). Excitation and emission slits were 6 nm and 5 nm respectively. A cross-oriented configuration of the polarizer (Expol = 90°, Empol = 0°) was used in order to reduce LUVs diffusion artefacts.

[5] = Calcein leakage from LUVs; settings: peptide/lipid ratio of 1/2; LUVs PC/PG/[14C]PC 9/1/0.01, 70 mM calcein, HEPES 10 mM pH 7.4, 5 min after peptide addition, 25°C, fluorescence, relative to lysis with 1% Triton X-100
Description: as §1
The release of calcein after 5 minutes of peptide exposure to LUVs was measured by spectrofluorimetry (Varian eclipse) at excitation and emission wavelengths of 490 nm and 500–650 nm, respectively. […] Leakage was expressed as a percent relative of the total amount of dye released by LUVs lysis with 1% Triton X-100, according to equation: % release = 100×(F(t)−F0)/(FT−F0). F(t) is the fluorescence intensity at time t, F0 is the fluorescence intensity before peptide addition and FT the fluorescence intensity after LUVs lysis.

[6] = test system: Annexin 2-GFP transfected MDCK cells; assay: Cell permeability, Ca2+ influx monitored by Annexin 2-GFP movement; type: cell-based
Description: (§2) Annexin 2-GFP expression vector was a kind gift of Dr Stephen Moss (London UK). The annexin2-GFP transfected MDCK cloning will be published elsewhere. MDCK cells were cultured as described. Peptides were added at different concentrations and the annexin-GFP fluorescence was followed in a Zeiss inverted microscope. Films were acquired with Metamorph software. Cytotoxicity in CHO cells was evaluated using the CCK8 cell counting kit (Dojindo Laboratories). Briefly, cell suspension (100 µl, 1500 CHO cells per well) were seeded in DMEM plus 10 % FCS in 96-well microtiter plate at 37°C. 10 µl of peptides were added twice to the cells after 24 and 48 hours of cell culture to obtain concentrations of 1, 10, 20 and 50 µM and the toxicity was evaluated 48 after treatment.

CHO cells = assay: Cytotoxicity, CCK8 cell counting kit; type: cell-based; settings: after 48 hours of incubation of CHO cells with 10 µM peptides, CCK8, DMEM plus 10 % FCS, 37°C
Description: as §2

Substance: RQIKIWFQNRRMKWKK-NH2 [pAntp, Penetratin, cell-penetrating peptide, basic, non-amphipathic, 16 residues, reference compound]
- Time for growing micro-tubes to invade the entire vesicle internal volume [1]: less than 20 minutes
- S^−1 (repeat distance), Ld1 phase ([2]; 5 mM HEPES pH 7.4, 20°C): 6.06 nm
- S^−1 (repeat distance), Ld2 phase ([2]; 5 mM HEPES pH 7.4, 20°C): 5.94 nm
- dwater (thickness of the hydration layer), Ld2 phase ([2]; 20°C, peptide-free 2.19): 2.31 nm
- dwater (thickness of the hydration layer), Ld1 phase ([2]; 20°C, peptide-free 2.23): 2.28 nm
- dbilayer (thickness of the membrane bilayer), Ld2 phase ([2]; 20°C, peptide-free 3.62): 3.63 nm
- dbilayer (thickness of the membrane bilayer), Ld1 phase ([2]; 20°C, peptide-free 3.90): 3.78 nm
- Peptide/Lipid ratio at which LUVs are aggregated efficiently ([3]; discussion, from figure 5): 1/20
- P/L ratio at the plateau of LUV aggregation ([3]; turbidity at 340 nm, HEPES 10 mM pH 7.4, 20 min, 25°C): 1/15
- Peptide/lipid mass ratio (P/L) at which LUV aggregation starts ([3]; turbidity, absorbance at 340 nm, 10 µg LUVs in 500 µl HEPES 10 mM pH 7.4, 20 min after peptide addition, 25°C): 1/25
- P/L ratio of peptide-membrane saturation (maximal shift in emission wavelength) [4]: 1/10
- Calcein release [5]: 11%
- Permeability towards ions at high peptide concentration ([6]; 100 µM peptide, Annexin 2-GFP MDCK cells): did not induce any increase in permeability towards ions
- Cell permeabilization ([6]; monitored by calcium permeability inducing annexin 2 movement in MDCK cells): no
- Lethality (CHO cells): 0%
